According to ChEMBL document CHEMBL4024706 (Eur J Med Chem, 2017):

What was measured:
[1] = target: Homeodomain-interacting protein kinase 2 (Homo sapiens) (UniProt Q9H2X6); assay: Inhibition of wild-type human partial length HIPK2 (M153 to S564 residues) expressed in mammalian expression system assessed as residual activity at 1 uM by Kinomescan method relative to control
[2] = target: Phosphatidylinositol 4-phosphate 5-kinase type-1 alpha (Homo sapiens) (UniProt Q99755); assay: Inhibition of wild-type human full length PIP5K1A (M1 to H562 residues) expressed in bacterial expression system assessed as residual activity at 1 uM by Kinomescan method relative to control
[3] = target: Serine/threonine-protein kinase PAK 5 (Homo sapiens) (UniProt Q9P286); assay: Inhibition of wild-type human partial length PAK7 (Y400 to H719 residues) expressed in bacterial expression system assessed as residual activity at 1 uM by Kinomescan method relative to control
[4] = test system: ALK tyrosine kinase receptor (Homo sapiens), Q9UM73 [C1156Y]; assay: Inhibition of […] human partial length ALK C1156Y mutant (I1088 to E1409 residues) expressed in mammalian expression system assessed as residual activity at 1 uM by Kinomescan method relative to control
[5] = target: Serine/threonine-protein kinase Nek6 (Homo sapiens) (UniProt Q9HC98); assay: Inhibition of wild-type human full length NEK6 (M8 to T313 residues) expressed in bacterial expression system assessed as residual activity at 1 uM by Kinomescan method relative to control
[6] = target: MAP kinase-interacting serine/threonine-protein kinase 1 (Homo sapiens) (UniProt Q9BUB5); assay: Inhibition of wild-type human full length MKNK1 (M1 to L424 residues) expressed in mammalian expression system assessed as residual activity at 1 uM by Kinomescan method relative to control
[7] = test system: Epidermal growth factor receptor (Homo sapiens), P00533 [T790M]; assay: Inhibition of human partial length EGFR T790M mutant (R669 to G1022 residues) expressed in mammalian expression system assessed as residual activity at 1 uM by Kinomescan method relative to control
[8] = target: Non-receptor tyrosine-protein kinase TYK2 (Homo sapiens) (UniProt P29597); assay: Inhibition of wild-type human partial length TYK2 JH1 catalytic domain (V877 to C1187 residues) expressed in mammalian expression system assessed as residual activity at 1 uM by Kinomescan method relative to control
[9] = target: Dual specificity mitogen-activated protein kinase kinase 4 (Homo sapiens) (UniProt P45985); assay: Inhibition of wild-type human partial length MEK4 (S84 to D399 residues) expressed in mammalian expression system assessed as residual activity at 1 uM by Kinomescan method relative to control
[10] = test system: OCI-AML-3; assay: Growth inhibition of human OCI-AML3 cells; format: functional; conditions: Homo sapiens, OCI-AML-3
[11] = target: Bone morphogenetic protein receptor type-1B (Homo sapiens) (UniProt O00238); assay: Inhibition of wild-type human partial length BMPR1B (D178 to L502 residues) expressed in mammalian expression system assessed as residual activity at 1 uM by Kinomescan method relative to control
[12] = target: Serine/threonine-protein kinase TAO1 (Homo sapiens) (UniProt Q7L7X3); assay: Inhibition of wild-type human partial length TAOK1 (M1 to A320 residues) expressed in mammalian expression system assessed as residual activity at 1 uM by Kinomescan method relative to control
[13] = target: Insulin-like growth factor 1 receptor (Homo sapiens) (UniProt P08069); assay: Inhibition of wild-type human partial length IGF1R (L972 to D1294 residues) expressed in bacterial expression system assessed as residual activity at 1 uM by Kinomescan method relative to control
[14] = target: Casein kinase I isoform gamma-1 (Homo sapiens) (UniProt Q9HCP0); assay: Inhibition of wild-type human partial length CSNK1G1 (T15 to S353 residues) expressed in bacterial expression system assessed as residual activity at 1 uM by Kinomescan method relative to control
[15] = target: Casein kinase II subunit alpha' (Homo sapiens) (UniProt P19784); assay: Inhibition of wild-type human full length CSNK2A2 (M1 to R350 residues) expressed in mammalian expression system assessed as residual activity at 1 uM by Kinomescan method relative to control
[16] = target: Serine/threonine-protein kinase D3 (Homo sapiens) (UniProt O94806); assay: Inhibition of wild-type human partial length PRKD3 (S543 to E863 residues) expressed in bacterial expression system assessed as residual activity at 1 uM by Kinomescan method relative to control
[17] = target: Receptor tyrosine-protein kinase erbB-4 (Homo sapiens) (UniProt Q15303); assay: Inhibition of wild-type human partial length ERBB4 (L690 to K994 residues) expressed in bacterial expression system assessed as residual activity at 1 uM by Kinomescan method relative to control
[18] = target: Myosin light chain kinase family member 4 (Homo sapiens) (UniProt Q86YV6); assay: Inhibition of wild-type human partial length MYLK4 (V79 to S380 residues) expressed in bacterial expression system assessed as residual activity at 1 uM by Kinomescan method relative to control
[19] = target: MAP/microtubule affinity-regulating kinase 4 (Homo sapiens) (UniProt Q96L34); assay: Inhibition of wild-type human partial length MARK4 (K29 to G340 residues) expressed in bacterial expression system assessed as residual activity at 1 uM by Kinomescan method relative to control
[20] = target: Serine/threonine-protein kinase MARK2 (Homo sapiens) (UniProt Q7KZI7); assay: Inhibition of wild-type human partial length MARK2 (M1 to R450 residues) expressed in bacterial expression system assessed as residual activity at 1 uM by Kinomescan method relative to control
[21] = target: Serine/threonine-protein kinase PAK 6 (Homo sapiens) (UniProt Q9NQU5); assay: Inhibition of wild-type human partial length PAK6 (N298 to C681 residues) expressed in bacterial expression system assessed as residual activity at 1 uM by Kinomescan method relative to control
[22] = target: Mitogen-activated protein kinase kinase kinase kinase 1 (Homo sapiens) (UniProt Q92918); assay: Inhibition of wild-type human full length HPK1 (M1 to R799 residues) expressed in bacterial expression system assessed as residual activity at 1 uM by Kinomescan method relative to control
[23] = Growth inhibition of human M07e cells; format: functional; conditions: Homo sapiens, M-07e
[24] = target: Serine/threonine-protein kinase PAK 2 (Homo sapiens) (UniProt Q13177); assay: Inhibition of wild-type human partial length PAK2 (P151 to R525 residues) expressed in bacterial expression system assessed as residual activity at 1 uM by Kinomescan method relative to control
[25] = target: Macrophage-stimulating protein receptor (Homo sapiens) (UniProt Q04912); assay: Inhibition of wild-type human partial length MST1R (I1057 to L1363 residues) expressed in bacterial expression system assessed as residual activity at 1 uM by Kinomescan method relative to control
[26] = target: Calcium/calmodulin-dependent protein kinase type II subunit delta (Homo sapiens) (UniProt Q13557); assay: Inhibition of wild-type human partial length CAMK2D (M1 to E329 residues) expressed in bacterial expression system assessed as residual activity at 1 uM by Kinomescan method relative to control

C=CC(=O)Nc1cc(Nc2cc(-c3cccc(NC(=O)c4ccc(C(C)(C)C)cc4)c3C)cn(C)c2=O)ccc1C(=O)N1CCOCC1
Activity [1]: 100% | Activity [2]: 95% | Activity [3]: 98% | Activity [4]: 94% | Activity [5]: 98% | Activity [6]: 91% | Activity [7]: 100% | Activity [8]: 74% | Activity [9]: 86% | GI50 [10]: 3.8 µM | Activity [11]: 100% | Activity [12]: 100% | Activity [13]: 92% | Activity [14]: 98% | Activity [15]: 100% | Activity [16]: 100% | Activity [17]: 95% | Activity [18]: 88% | Activity [19]: 91% | Activity [20]: 99% | Activity [21]: 100% | Activity [22]: 100% | GI50 [23]: 7.3 µM | Activity [24]: 81% | Activity [25]: 97% | Activity [26]: 100%
